Where two headings read alike, the source gives them in different places.

One experiment has as its system S. aureus (MN8). Nature of the experiment: microbe, parasite or virus in culture. Type of experiment: cell-based. The following applies: Staphylococcus aureus; for inhibition at 0.2 %: 0.2% test compound; for inhibition at 0.5 %: 0.5% test compound.
The test system of another experiment is S. aureus FRI-1169. Type of experiment: cell-based, Staphylococcus aureus.
In experiment [1] the test system is S. aureus FRI-1187. Type of experiment: cell-based, Staphylococcus aureus.
The subject of experiment [2] is S. aureus FRI-1187. Type of experiment: cell-based, Staphylococcus aureus. The source holds these as a separate data set.
For another experiment, the system named is S. aureus strain RN 6390. Type of experiment: cell-based, Staphylococcus aureus.
Setting [3] is: read-out: Reduction of Toxin %, Table 2.
[4] abbreviates: read-out: Reduction of Toxin %, Table 4.
[5] abbreviates: read-out: Reduction of Toxin %, Table 3.

In the case of `O=C(O)c1ccccc1O` [2-hydroxybenzoic acid], the inhibition at 0.2 % in the experiment with S. aureus (MN8) (setting [3]) came to 93%.
`CC(=O)Nc1ccc(O)cc1` [4-Acetamidophenol]: in the experiment with S. aureus (MN8) (setting [4]), the inhibition at 0.5 % was found to be 79%.
On to `CC(=O)N[C@@H](Cc1ccc(O)cc1)C(=O)O` [Acetyl tyrosine], for which the inhibition at 0.5 % in the experiment on S. aureus (MN8) (setting [5]) was determined as 69%.
The same measure, in the same setting: for `O=C(O)c1cc(O)c(O)c(O)c1` [Gallic acid] the value was 95%.
For the molecule `OCCc1ccccc1` [Phenylethyl alcohol], the inhibition at 0.5 % in the experiment on S. aureus (MN8) (setting [3]) was found to be 97%; in the experiment with S. aureus (MN8) (setting [5]), 98%; with S. aureus (MN8) (setting [4]), 98%. Moreover, the “effect on the growth of S. aureus cells” value in the experiment with S. aureus FRI-1169 was “minimal, if any, effect”; in the experiment with S. aureus FRI-1187 [2], “minimal, if any, effect”. The “amount of exotoxin production” value in the experiment with S. aureus FRI-1187 [1] was “significantly reduced”. The “production of the alpha toxin” value in the experiment with S. aureus strain RN 6390 is recorded as “significantly reduced”.
Consider `O=C(O)/C=C/c1ccccc1` [Trans-cinnamic acid], for which the inhibition at 0.5 % in the experiment on S. aureus (MN8) (setting [5]) stood at 82%.
With `Nc1ccc(C(=O)O)cc1` [p-aminobenzoic acid], in the experiment with S. aureus (MN8) (setting [3]), the inhibition at 0.2 % was determined as 89%.
`COC(=O)c1ccc(O)cc1` [p-hydroxybenzoic acid, methyl ester]: the inhibition at 0.2 % with S. aureus (MN8) (setting [3]) was determined as 82%. In addition, the “production of the alpha toxin” value in the experiment on S. aureus strain RN 6390 is listed as “significantly reduced”.

Source of the values: patent US20030135173A1 (priority 2001, published 2003).
